Test results from paper PMC3790782, “Optimization and Pharmacological Validation of a Leukocyte Migration Assay in Zebrafish Larvae for the Rapid In Vivo Bioactivity Analysis of Anti-Inflammatory Secondary Metabolites” (PLoS ONE, 2013).
Marks after values point to notes of the source that are not given here.

Experiments:
[1] = system: zebrafish larvae; settings: 4 dpf zebrafish larvae, 8 h post-incubation; not more than 2 of 10 larvae with signs of toxicity
Description: For the toxicological analysis, ten 4 dpf zebrafish larvae were used per well in 24-well culture plates. Incubation of each set of larvae at 28°C (±0.5) was done with SAIDs, NSAIDs and non-AIDs at concentrations ranging from 0.1 µM to 500 µM, with NPs at concentrations ranging from 1 µM to 500 µM, and with PEs at concentrations ranging from 1 ug/ml to 1 mg/ml. Controls containing only vehicle (1% DMSO) and untreated larvae were processed in parallel. Examination of each set of larvae was done under light microscopy (Carl Zeiss Stemi 2000C) each hour during a period of 8 h, and a final evaluation at 24 h post-incubation. At 8 h post-incubation, signs of toxicity, e.g. pericardial oedema, cardiovascular defects (arrhythmia or decreased circulation), balance defects (loss of normal posture), locomotor defects (decreased touch response), and ultimately death were scored for every drug, NP, and PE to further establish their maximum tolerated concentration (MTC). […] In this context, only non-toxic concentrations (below the MTC) were considered for further leukocyte migration analysis. All the toxicological assays were performed in duplicate using a different batch of zebrafish larvae for each set of experiments.
Toxicological assessment of all the samples analyzed in our study was done prior to the evaluation of their anti-inflammatory properties. The maximum tolerated concentrations (MTCs) were determined at 8 h post-treatment according to toxicological parameters including pericardial oedema, cardiovascular defects (arrhythmia or decreased circulation), balance defects (loss of normal posture), locomotor defects (decreased touch response), and death. […] Vehicle-treated (1% DMSO) and untreated larvae were processed in parallel to minimize experimental variability in this toxicological evaluation.

[2] = system: leukocyte migration in 4 dpf zebrafish larvae; test: LPS-enhanced leukocyte migration assay (tail transection, MPO staining, RLM); format: in vivo, zebrafish (Danio rerio); design: Anti-inflammatory activity at MTC: concentration or dose not given beside the values
Description: The lipopolysaccharide- (LPS−)enhanced leukocyte migration assay was carried out by triplicate for each sample in 4 dpf zebrafish larvae. The total incubation period of the assay was eight hours. Initially, a pre-incubation step (i.e. prior to tail transection) of one hour at 28°C (±0.5°C) was carried out in 24-well culture plates. Ten larvae per well were incubated in 1 ml of testing mix, consisting of a specific concentration of each sample and the amount of 0.3 X Danieau’s medium necessary to complete 1 ml. Immediately after pre-incubation, complete tail transection in each larva was performed. Zebrafish larvae were first anesthetized by immersion in 0.3 X Danieau’s medium containing 70 µg/ml tricaine (ethyl 3-aminobenzoate, Sigma-Aldrich) and then tail transection near the tip was performed with a sterile scalpel under light microscopy (Carl Zeiss Stemi 2000C). Larvae were then placed in fresh 0.3 X Danieau’s medium without anesthetic for a few minutes until the final incubation period. For the last step, a new testing mix was prepared including 10 µg/ml lipopolysaccharides from Salmonella typhosa ATCC 10749 (LPS, Sigma-Aldrich Chemical) to enhance leukocyte migration to the injured zone. The final incubation step (i.e. subsequent to tail transection) of the injured larvae in contact with the pro-inflammatory agent and with the specific concentration of each SAID, NSAID, non-AID, NP, and PE at 28°C (±0.5°C) was done for 7 h. Within this period, sporadic evaluations of the larvae were done to examine their viability during the time of the assay. Larvae that completed the incubation time were fixed overnight in 4% formaldehyde (Sigma-Aldrich) at 4°C. Controls containing only the vehicle (1% DMSO) were processed in parallel.
Fixed larvae were gently washed twice with 1 X PBST (PBS-1X phosphate buffered saline, Gibco +0.1% Tween 20) for 5–10 min and then incubated at room temperature in 1 ml of freshly prepared Leucognost® Pox (Merck) staining solution, made according the directions of the provider. Observation of stained black-brown cells (leukocytes) in the larvae was possible within 15 min of incubation. Evaluation of the migrating leukocytes, particularly surrounding the injured region, in each larva was done under light microscopy (Carl Zeiss Stemi 2000C) and scoring was done using a migration scale established to semi-quantify the amount of migrating leukocytes on one side of each larva.
The average of the value achieved for each of the ten larvae tested in triplicate for one sample is expressed as relative leukocyte migration (RLM) according to the formula: RLM = leukocyte migration of the larva/average leukocyte migration of the negative control.
To determine the extent of leukocyte migration generated after exposing 4 dpf zebrafish larvae to mechanical and biological stimuli – namely tail transection and LPS exposure – we used a commercially available whole-mount cytochemical staining method (Leucognost® Pox, Merck) to detect MPO activity in situ. To minimize the number of handling steps post-staining, this method was chosen over the alternative myeloperoxidase stain Sudan Black B [26], [27], which also stains phospholipids, neural fats and sterols. In our experiments, we visualized migrating leukocytes in 4 dpf larvae at 8 h post-injury. Microscopic evaluations of MPO-stained larvae allowed us to score the degree of leukocyte migration at the trauma site according to a comparative scale that we established particularly for this purpose (Figure 2). Myeloperoxidase-positive cells, appearing as black-brown dots, were counted in a segment at the edge of the tail on one side of every larva (Figure 2). The number of leukocytes was then graded according to the comparative scale and subsequently converted into a relative value expressed as the relative leukocyte migration (RLM) activity for the total number or larvae for one sample.

[3] = system: NO, RAW 264.7; design: method as in PMID 15621702, PMID 19678956, PMID 19885845; settings: cited from earlier work

O=C(O)/C=C/c1ccc(O)c(O)c1 [Caffeic acid, caffeic acid]
Maximum tolerated concentration (MTC) [1]: 500 µM | Leukocyte migration (RLM) ([2]; 500 µM, tail cut + 10 µg/ml LPS, relative to 1% DMSO control): 0.14 ^** | response vs control in vivo at 1 µM ([2]; Danio rerio, Leukocyte, 8 h, 1 µM, tail cut + 10 µg/ml LPS, relative to 1% DMSO control): 80% | response vs control in vivo at 10 µM ([2]; Danio rerio, Leukocyte, 8 h, 10 µM, tail cut + 10 µg/ml LPS, relative to 1% DMSO control): 71% | response vs control in vivo at 30 µM ([2]; Danio rerio, Leukocyte, 8 h, 30 µM, tail cut + 10 µg/ml LPS, relative to 1% DMSO control): 59% | response vs control in vivo at 100 µM ([2]; Danio rerio, Leukocyte, 8 h, 100 µM, tail cut + 10 µg/ml LPS, relative to 1% DMSO control): 59% | response vs control in vivo at 300 µM ([2]; Danio rerio, Leukocyte, 8 h, 300 µM, tail cut + 10 µg/ml LPS, relative to 1% DMSO control): 34% | response vs control in vivo at 500 µM ([2]; Danio rerio, Leukocyte, 8 h, 500 µM, tail cut + 10 µg/ml LPS, relative to 1% DMSO control): 14% | Anti-inflammatory activity at MTC ([2]; at MTC, (1−RLM)x100): 86% | RLM (zebrafish-based assay) ([2]; at the MTC given in Table 2): 0.14 | IC50 [3]: 4.8 µM
